This passage reports melting point results from a melting point compilation (Tetko et al.; mined from patent text by program, amines drawn as free bases though some values may be those of a salt).

Molecules are shown by their SMILES.

As to `Cn1c(=O)c(=NO)nc(-c2ccccc2)c2ccccc21`, the melting point (as a rule, the temperature, or range, at which the solid turns liquid) was 239 to 242 °C.

In turn, `CN(C)CCn1c2ccc(O)cc2c2c3c(c(-c4ccccc4)cc21)C(=O)NC3=O` showed a melting point of 283 to 286 °C.

Consider `CC[C@H](C)[C@H](OCc1ccccc1)[C@H]1[C@H]([N+](=O)[O-])[C@H](c2ccccc2)N[C@@H]1C(=O)NCC(=O)O`, for which the melting point was in the range of 156 to 157 °C.

The compound `Cc1noc(C)c1-c1cccc2c1C1(COc3cc4c(cc31)OCCO4)C(=O)N2C` (stereo unspecified) registered a melting point of 228 to 230 °C.

With `O=C1c2ccccc2CCc2ncsc21`, the melting point lay within 83 to 86 °C.

`COc1ccc(N2CCN(C=C3C(=O)Nc4cc(OC)c(OC)cc43)CC2)cc1OC` returned a melting point of 193 to 195 °C.

Regarding `Cc1oc(-c2cccs2)nc1CCOc1ccc([N+](=O)[O-])cn1`, the melting point was 126 °C.

In turn, `O=C(O)C(=NO)C(c1ccc(OCc2ccc3ccccc3n2)cc1)c1ccc(OCc2ccc3ccccc3n2)cc1` registered a melting point of 183 to 185 °C.

Regarding `NC(=O)c1c(Cl)c(Cl)c(Cl)c(Cl)c1C(=O)O`, the melting point fell in the range of 113 to 114 °C.

Turning to `O=C(NCc1ccc(Cl)cc1)c1cnc2sc(CO)cc2c1O`, the melting point lay within 205 to 210 °C.

`CCCCCCCCCCCCCCCCCCC(N=C(c1ccccc1)c1ccccc1)C(=O)OCC` (stereo unspecified): the melting point is 62 to 65 °C.

`COC(=O)C(Oc1ccc(Cl)cc1)c1ccc(Sc2ccc(Cl)cc2)cc1` (stereo unspecified) came in with a melting point of 90.5 to 94.5 °C.

As for `Cc1ncc2c(=O)n(C)c(=O)n(C)c2n1`, the melting point lay within 113 to 115 °C.

`COC(=O)Nc1cc(C)on1`: the melting point was in the range of 136 to 137 °C.

On to `CON(c1ccc([N+](=O)[O-])cc1[N+](=O)[O-])S(=O)(=O)c1cccc(C)c1`, for which the melting point is 148 to 150 °C.

The compound `O=c1c2ccccc2c2cnn(-c3ccccc3)c2n1CCCl` registered a melting point of 157 to 160 °C.

As for `CCCCCCCCOC(=O)CCCCCNC(=O)c1cc(OCc2ccccc2)ccc1OCc1ccccc1`, the melting point was in the range of 48 to 50 °C.

In turn, `CC1(C)CC(=NO)c2cc(F)ccc2O1` came in with a melting point of 108 to 110 °C.

The compound `C#CCN1C=CC(c2c(O)cc(C(C)C(C)CCCCC)cc2OC)CC1` (stereo unspecified) gave a melting point of 113 to 115 °C.

As to `CCCN(Cc1ccc(-c2ccccc2-c2nc(=O)o[nH]2)cc1)c1nc(C)ncc1C(=O)OCC`, the melting point lay within 176 to 177 °C.

On to `Cc1cncc(CN2CCC(=C3c4ccc(Cl)cc4CCc4cccnc43)CC2)c1`, for which the melting point lay within 58 to 61 °C.

Compound `CCOC(=O)C(CC(=S)c1ccc(-c2ccccc2)cc1)SC(C)=O` (stereo unspecified) displayed a melting point of 71.5 to 72.5 °C.

On to `CC(=O)c1ccc2c(c1O)CC(O)CO2` (stereo unspecified), for which the melting point fell in the range of 130 to 132 °C.

`C=CCOc1cc(C(O)(C(F)(F)F)C(F)(F)F)cc2c(C)cc(=O)[nH]c12`: the melting point lay in the range of 214 to 216 °C.

As for `CCc1cc2[nH]c(=O)c(=O)[nH]c2cc1CC`, the melting point is greater than 360 °C.

In turn, `CC(C)(C)c1cc(SC2CC(=O)N(C3CCCCC3)C2=O)cc(C(C)(C)C)c1O` (stereo unspecified) had a melting point of 94 to 98 °C.

The compound `O=C(Oc1ccc(OC(=O)c2ccccc2)c(-c2ccccc2)c1)c1cc(O)c(O)c(O)c1` had a melting point of 82 to 84 °C.

Compound `CC(C)(C)OC(=O)NC(Cc1ccc(OCc2ccccc2)cn1)C(=O)NCc1ccc(C(=O)NO)cc1` (stereo unspecified) gave a melting point of 106 to 108 °C.

As to `O=S(=O)(Nc1cccc(CCOCc2ccc(-c3ccc(Cl)cc3)cc2F)c1)C(F)(F)F`, the melting point lay in the range of 99 to 101 °C.

With `O=C(Cc1cccc(O)c1)c1cccc(O)c1`, the melting point fell in the range of 151 to 154 °C.

Compound `O=CN1CC(CCN2CC=C(c3c[nH]c4cc(Cl)ccc34)CC2)c2ccccc21` (stereo unspecified) gave a melting point of 183 to 185 °C.

`CC(=O)NC(Cl)C(Cl)(Cl)CCl` (stereo unspecified) yielded a melting point of 70 to 72 °C.

`O=C(O)COc1ccc(C(=O)c2ccccc2F)c(Cl)c1Cl` showed a melting point of 153 to 156 °C.

In the case of `c1ccc(-c2noc(COc3ccc(CCCn4ccnc4)cc3)n2)cc1`, the melting point lay in the range of 124 to 125 °C.

`O=C1NC(=O)C(Sc2ccc(Br)cc2)S1` (stereo unspecified) displayed a melting point of 115 to 117 °C.

`COc1ccc2sc(SCc3c(F)c(F)c(F)c(F)c3F)nc2c1` displayed a melting point of 71 to 75 °C.

`Nc1nc(N)c2ncn(COCCO)c2n1` had a melting point of 183 to 184 °C.

Compound `O=c1c2ccccc2nc(CCl)n1-c1ccc(Cl)cc1` displayed a melting point of 234 to 235 °C.

The compound `OCCOC(c1ccccc1)c1ccccc1` registered a melting point of 95 to 97 °C.

`CCC(C(=O)O)C1=NC(c2ccccc2)(c2ccccc2)CO1` (stereo unspecified) displayed a melting point of 125 to 126 °C.

`O=C(O)C1c2cc(Br)ccc2COc2ccccc21` (stereo unspecified) came in with a melting point of 187 to 189 °C.

As for `COC(=O)c1cc(Oc2cccnc2)c(C(F)(F)F)cc1[N+](=O)[O-]`, the melting point was 98 to 100 °C.

As for `Cc1cc(C(=O)N2Cc3cccn3Cc3ccccc32)ccc1[N+](=O)[O-]`, the melting point was 246 to 248 °C.

On to `CN1C(=O)CC[C@]2(C)c3ccc(-c4c(F)c(F)c(F)c(F)c4F)cc3CC[C@@H]12`, for which the melting point lay within 92 to 100 °C.

`CCC1(c2cn(-c3c(Cl)cc(C(F)(F)F)cc3Cl)nc2C#N)CC1(Br)Br` (stereo unspecified) returned a melting point of 107 to 108 °C.

`O=[N+]([O-])c1cnc(Sc2nnc(O)n2C2CCCCC2)s1` came in with a melting point of 237 to 239 °C.

In turn, `Cc1cc(C)nc(N=S(C)C)n1` displayed a melting point of 117 to 120 °C.

Turning to `COc1cc(C)nc(C#N)n1`, the melting point fell in the range of 80 to 85 °C.

Consider `O=C(O)CCNC(=O)C(Cl)(Cl)Cl`, for which the melting point fell in the range of 102 to 110 °C.

The compound `CC(=O)NNc1ccc(NC(=S)N(C)C)cc1` registered a melting point of 187 to 189 °C.

For `COC(=O)C(C)=Cc1cc(N=C=S)ccc1Cl`, the melting point fell in the range of 60 to 61 °C.

The compound `NN=Cc1ccc(C(=O)NC2CCC3(CC2)CN(CC(=O)O)C(=O)O3)cc1` (stereo unspecified) registered a melting point of 280 to 284 °C.

`CNc1n[nH]c(=O)n1N` gave a melting point of 214 °C.

`CCCCn1nc(-c2cc(C(C)(C)C)c(O)c(C(C)(C)C)c2)c2cccnc21` yielded a melting point of 94 to 96 °C.

`C#CCn1c(=O)n(C)c2ccccc21` displayed a melting point of 110 to 112 °C.

Turning to `CC(=O)Nc1ccc(CCC2CSC(=O)NN2)cc1` (stereo unspecified), the melting point was in the range of 235 to 240 °C.

As for `C=CCn1cc(C(=O)O)c(=O)c2cc(F)c(N3CCOCC3)cc21`, the melting point came out at 210 °C.

The compound `Cc1cccc(CNC(=O)c2nc3scc(COCc4ccc(C(=O)O)cc4)c3c(=O)[nH]2)c1` yielded a melting point of 237 to 239 °C.

Compound `CC(=O)N(C)c1c(I)c(NC(=O)CCCC(=O)O)c(I)c(C(=O)O)c1I` yielded a melting point of 189 to 196 °C.

In the case of `COC(=O)c1ccc(Nc2nccc(-c3ccncc3)n2)cc1`, the melting point fell in the range of 194 to 196 °C.

Consider `O=C(NCc1ccccc1)Nc1cc(CNc2ccccc2C(=O)Nc2cccc(C(F)(F)F)c2)ccn1`, for which the melting point worked out at 153 °C.

For the compound `Cc1cc(-c2ccccc2)nc(N2CCN(c3ccc(O)cc3)CC2)c1C#N`, the melting point is 207 °C.

For `CCc1c(Cl)c2ccccn2c1C(=O)c1ccc(O)c(Br)c1`, the melting point is 204 °C.

Compound `CC(C)Oc1ccc(CCCO)c(OCc2ccc(Cl)cc2Cl)c1` displayed a melting point of 75.5 to 76.5 °C.

The compound `Cc1noc(C)c1COc1ccc(C(=O)O)c(O)c1` gave a melting point of 201 to 203 °C.

Regarding `COc1ccc(-c2nc(Sc3ccc(Cl)c(Cl)c3)n(C3CCCCO3)c2-c2ccc(OC)cc2)cc1` (stereo unspecified), the melting point is 125 to 127 °C.

Consider `N#Cc1c(OCC(F)(F)F)nc(CO)nc1N1CCc2ccccc2CC1`, for which the melting point is 106 to 110 °C.

The compound `C#CCNC(=O)N1CC(Oc2ccc(Cl)cc2)C1` had a melting point of 120 to 122 °C.

The compound `CCOC(=O)c1ccc(N(C)C)nn1` came in with a melting point of 112 °C.

In the case of `Cc1nnc(C(C)NC(=O)CC(C)C)c(=O)[nH]1` (stereo unspecified), the melting point was 224 to 226 °C.

In the case of `N=C(N)NCCCc1cc[nH]n1`, the melting point was found to be 210 °C.

The compound `Clc1ccc2c(c1)C(c1ccccc1)=NCc1nnc(CCOCc3ccccc3)n1-2` returned a melting point of 115 to 117 °C.

The compound `O=C(Nc1ccc(Oc2ccnc(N3CCCC3)n2)c2ccccc12)c1ccccc1N1CCCC(F)C1` (stereo unspecified) returned a melting point of 111 to 113 °C.

Take `CC(C)c1nsc(N2CCN(C(=O)Nc3noc4ccccc34)CC2)n1`: the melting point fell in the range of 178 to 179 °C.

The compound `CC(C)c1ccc(N(C=O)C(=O)N(C)C)cc1` gave a melting point of 30 to 32 °C.

The compound `CN=Cc1c(C(=O)OC)[nH]c2c(C)ccc(C)c12` had a melting point of 261 to 262 °C.

As for `COC(=O)CC(=O)c1ccc(C#N)cc1`, the melting point lay in the range of 93 to 98 °C.

Consider `CCOC(=O)c1c(C)n(C(C)=O)c(=O)n1C(C)=O`, for which the melting point lay in the range of 56 to 58 °C.

Turning to `Cc1cc(C)c(S(=O)(=O)On2nnc3ccccc32)c(C)c1`, the melting point was in the range of 128 to 130 °C.

In turn, `NC(=O)c1cccc(Oc2ncccc2C(=O)NCc2ccccc2Cl)c1` displayed a melting point of 153 to 155 °C.

Regarding `O=C1/C(=C/c2cccs2)CNc2cc(OCCn3ccnc3)ccc21`, the melting point is 211 to 213 °C.

On to `O=C(Nc1cccc2c1ncc1c(=O)n3ccnc3sc12)c1c(Cl)cccc1Cl`, for which the melting point is greater than 250 °C.

Turning to `CCCCC(=O)c1c(-c2ccc3c(Br)c(OCC(=O)OCC)ccc3c2)oc2ccc(Cl)cc12`, the melting point lay in the range of 88 to 91 °C.

`CCn1cc(C(=O)O)c(=O)c2cc3cc(F)c(N4CCNC(c5ccc(F)cc5)C4)cc3nc21` (racemic) showed a melting point of 298 °C.

As to `Clc1ccc(-c2ccc(OCCCBr)cc2)cc1`, the melting point lay in the range of 103 to 105 °C.

Regarding `CCOC(=O)c1cnc2c(OC(F)F)c(F)ccc2c1O`, the melting point is 218 to 219 °C.

In turn, `COc1cc(O)c(C(=O)CC(=O)C(C)(C)C#N)c(OC)c1` gave a melting point of 112 to 113 °C.

The compound `CN1Cc2c(-c3nc(CCl)co3)ncn2-c2ccccc2C1=O` returned a melting point of 196 to 198 °C.

`C=CCn1c(CC)nc2nc3cc(Cl)ccc3nc21`: the melting point is 117 to 121 °C.

With `OC(c1ccc2c(c1)CCN2)(C(F)(F)F)C(F)(F)F`, the melting point was 161 to 162 °C.

For the compound `CONCc1nc2c(N)nc3cc(-c4cccnc4)cnc3c2n1CC(C)(C)O`, the melting point was in the range of 195 to 197 °C.
